Test results taken from patent publication US8889660B2, “Methods for treating obesity or an obesity related condition” (Case Western Reserve University, priority 2010, dated 2014).
Entries after “also recorded” stand apart in the source; their conditions may differ.

Experiments:
[1] = test system: retinoic acid receptor (RAR); experiment: Activation of retinoic acid response element (RARE) / RAR; format: cell-based; details: FIGS. 1A-B, 7 and 8
Excerpt: FIG. 7 is a histogram showing the activation of retinoic acid response element (RARE) by all-trans-retinol (ROL), (13R)-all-trans-13,14-dihydroretinol (DROL R) and (13S)-all-trans-13,14-dihydroretinol (DROL S);
FIG. 8 is a histogram showing the activation of retinoic acid response element (RARE) by all-trans-retinoic acid (RA), (13R)-all-trans-13,14-dihydroretinoic acid (DRA R) and (13S)-all-trans-13,14-dihydroretinoic acid (DRA S); and
The at least one receptor may also include a retinoic acid receptor (RAR), such as RAR-α, RAR-β and RAR-γ which, when activated, translocates to a cell nucleus, binds to hormone response element on DNA, and elicits expression or transexpresssion of gene products. Alternatively, at least one response element, such as the RAR response element (RARE), can be activated.

[2] = target: retinol binding protein 4 (RBP4) (Homo sapiens, UniProt P02753); experiment: Binding to RBP4 by fluorescence quenching; details: FIG. 9
Excerpt: FIG. 9 is a series of graphs showing the binding of (R)-all-trans-13,14-dihydroretinol and (S)-all-trans-13,14-dihydroretinol to RBP4, as determined by fluorescence quenching.
In another aspect of the present invention, the marker corresponding to the level and/or activity of an all-trans-retinol:all-trans-13,14-dihydroretinol saturase polypeptide may comprise a metabolite, such as a retinoid, associated with all-trans-retinol:all-trans-13,14-dihydroretinol saturase activity. The marker can include, for example, a retinoid having a saturated C13-14 double bond. More particularly, the retinoid having a saturated C13-14 double bond can include all-trans-13,14-dihydroretinol and/or all-trans-13,14-dihydrotretinoic acid. […] Increased levels of RBP4 are associated with the metabolic syndrome, diabetic disease and correlate with increased insulin resistance, obesity and visceral adiposity. Various techniques known in the art may be used to detect dihydroretinoid metabolite levels in a tissue sample, including, but not limited to, chromatography-based methods, electrophoresis and sedimentation, mass spectroscopy, and/or antibody-based methods. […]

[3] = target: T1, G-protein-coupled receptor 40 (GPR40) (Homo sapiens, UniProt O14842); experiment: Calcium responses of GPR40-expressing cells (receptor screening); format: cell-based; details: calcium responses of GPR40 and Ga16 cells, FIGS. 1A-B
T1 construct: expressed in transfected cells; host or cells: GPR40-expressing recombinant cells
T1 sequence (O14842 whole entry, species assumed): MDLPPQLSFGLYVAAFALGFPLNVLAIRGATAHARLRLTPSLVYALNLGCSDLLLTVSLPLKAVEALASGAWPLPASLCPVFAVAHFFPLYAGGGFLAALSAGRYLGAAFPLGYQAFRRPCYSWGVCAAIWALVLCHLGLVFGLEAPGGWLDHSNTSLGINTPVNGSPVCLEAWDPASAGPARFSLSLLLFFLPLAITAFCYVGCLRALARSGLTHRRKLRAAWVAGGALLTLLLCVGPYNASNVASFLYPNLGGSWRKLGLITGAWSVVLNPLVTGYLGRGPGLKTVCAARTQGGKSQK
Method: FIGS. 1A-B are a series of histographs showing the screening of potential receptors for all-trans-13,14-dihydroretinoic acid. FIG. 1A is a histogram showing calcium responses of G-protein-coupled receptor 40 and Ga16 cells to 100 μM fatty acids and retinoic acids. FIG. 2A is a histogram showing calcium responses to retinoic acid compounds at 10 μM;
The activation of GPR40 by all-trans-13,14-dihydroretinoic acid is studied in vitro by measuring the calcium flux and internalization of GPR40 in response to all-trans-13,14-dihydroretinoic in GPR40-expressing recombinant cells. In collaboration with Dr. de Lera University of Vigo, Spain, we have produced synthetic enantiomerically pure (R) or (S) all-trans-13,14-dihydroretinol and all-trans-13,14-dihydroretinoic acid and we have determined the stereospecificity of the RetSat catalyzed reaction. Activation of GPR40 by all-trans-13,14-dihydroretinoic acid leading to secretion of insulin is studied by measuring the level of secreted insulin from INS-1 insulinoma cells or from primary pancreatic β-cells primed with all-trans-13,14-dihydroretinoic acid.

wild type mice = experiment: Injection in wild type mice, glycemia; format: in vivo

Row | SMILES | activation of retinoic acid receptor (RAR/RARE) [1] | binding to RBP4 [2] | activation of GPR40 [3] | effect on blood glucose after injection (wild type mice)
1 | CC1=C(/C=C/C(C)=C/C=C/[C@H](C)CC(=O)O)C(C)(C)CCC1 (stereo in doubt) [(R)-all-trans-13,14-dihydroretinoic acid] | can activate RAR |  |  | 
2 | CC1=C(/C=C/C(C)=C/C=C/[C@@H](C)CC(=O)O)C(C)(C)CCC1 (stereo in doubt) [(S)-all-trans-13,14-dihydroretinoic acid] | can activate RAR |  |  | 
3 | CC1=C(/C=C/C(C)=C/C=C/[C@H](C)CCO)C(C)(C)CCC1 [(R)-all-trans-13,14-dihydroretinol, (13R)-13,14-Dihydroretinol] | can also activate RAR | associated with the carrier protein retinol binding protein 4 (RBP4) |  | 
4 | CC1=C(/C=C/C(C)=C/C=C/[C@@H](C)CCO)C(C)(C)CCC1 [(S)-all-trans-13,14-dihydroretinol, (13S)-13,14-Dihydroretinol] | can also activate RAR | associated with the carrier protein retinol binding protein 4 (RBP4) |  | 
5 | CC1=C(/C=C/C(C)=C/C=C/C(C)CC(=O)O)C(C)(C)CCC1 (stereo not drawn) [all-trans-13,14-dihydroretinoic acid] | activator |  | activator; also recorded: can be activated by all-trans-13,14-dihydroretinoic acid | 
6 | CC1=C(/C=C/C(C)=C/C=C/C(C)CCO)C(C)(C)CCC1 (stereo not drawn) [all-trans-13,14-dihydroretinol] |  |  |  | prolonged hypoglycemia
